{
  "source": "patent US20260191874A1",
  "about": "“FUSED AMINO PYRIMIDINE COMPOUNDS FOR TREATMENT OF AUTISM SPECTRUM DISORDER, OBSESSIVE COMPULSIVE DISORDER AND TICS” (Ovid Therapeutics Inc., priority 2024, published 2026)",
  "key": {"[1]": {"target": "T1, KCC3 (Homo sapiens, UniProt Q9UHW9)", "T1 construct": "expressed in transfected cells; host or cells: HEK-293", "T1 sequence (Q9UHW9 1-1150)": "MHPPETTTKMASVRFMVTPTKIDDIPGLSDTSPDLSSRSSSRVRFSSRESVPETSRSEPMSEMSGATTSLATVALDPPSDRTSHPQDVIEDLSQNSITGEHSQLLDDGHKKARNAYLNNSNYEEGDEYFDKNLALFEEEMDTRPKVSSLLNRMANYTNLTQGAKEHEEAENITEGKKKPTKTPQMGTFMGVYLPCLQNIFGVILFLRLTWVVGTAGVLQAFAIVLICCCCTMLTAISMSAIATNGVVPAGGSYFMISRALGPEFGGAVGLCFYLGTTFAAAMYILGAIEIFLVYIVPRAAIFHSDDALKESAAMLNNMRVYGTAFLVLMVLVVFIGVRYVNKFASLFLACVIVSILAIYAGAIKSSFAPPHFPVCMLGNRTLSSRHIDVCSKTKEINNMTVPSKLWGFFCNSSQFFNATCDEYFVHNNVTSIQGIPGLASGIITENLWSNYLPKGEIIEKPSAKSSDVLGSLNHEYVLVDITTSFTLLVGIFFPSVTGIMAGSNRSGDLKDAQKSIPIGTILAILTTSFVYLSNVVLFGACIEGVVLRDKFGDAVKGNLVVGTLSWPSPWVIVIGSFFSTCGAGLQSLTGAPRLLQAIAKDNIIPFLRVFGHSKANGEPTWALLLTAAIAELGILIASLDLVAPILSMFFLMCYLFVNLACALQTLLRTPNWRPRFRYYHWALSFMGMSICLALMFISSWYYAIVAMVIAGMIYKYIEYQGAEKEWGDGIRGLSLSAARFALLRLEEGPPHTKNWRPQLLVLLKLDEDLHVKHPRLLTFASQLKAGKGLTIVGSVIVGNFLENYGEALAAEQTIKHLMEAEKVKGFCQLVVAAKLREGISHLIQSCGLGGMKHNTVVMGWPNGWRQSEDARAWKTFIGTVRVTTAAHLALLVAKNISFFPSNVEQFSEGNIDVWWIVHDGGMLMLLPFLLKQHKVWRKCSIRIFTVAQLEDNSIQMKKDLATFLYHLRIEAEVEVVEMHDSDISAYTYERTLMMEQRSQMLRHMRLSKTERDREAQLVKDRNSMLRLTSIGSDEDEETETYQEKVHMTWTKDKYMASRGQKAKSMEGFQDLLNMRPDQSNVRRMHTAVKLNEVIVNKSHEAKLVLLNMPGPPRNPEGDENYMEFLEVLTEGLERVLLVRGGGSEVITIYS", "assay": "Tl+ flux assay in HEK-293 cells expressing KCC3", "format": "cell-based", "details": "read-out: concentration at which effects on KCC3 were seen (EC50 chart, FIG. 1G)", "protocol": "FLIPR TI Flux assay. HEK-293 cells were washed with HBSS, and then incubated with loading buffer containing TI sensitive fluorescent dye (https://www.moleculardevices.com), 20 μM bumetanide 20 μM ouabain and 2.5 mM probenecid for 1 h at room temperature (RT) under control conditions or with drugs in the dark using a FlexStation 3 microplate reader (Molecular Devices) and imaged […] for 30 min. Stimulus buffer was added containing 5 mM K^+/0.5 mM Tl^+ and cells were imaged every 1.5 over a 190 second time course The initial rate Tl^+ uptake (Relative Fluorescence Units (RFU) per second) was determined following addition of the stimulus buffer as outlined previously (Conway et al., 2017, supra) (Lee et al., 2022, supra).\nSeveral studies have shown that the activity and plasma membrane accumulation of KCC2 is potentiated via phosphorylation of S940, a process mediated by the activity of protein kinase C and protein phosphatase 1 (Lee et al., 2011, supra; Lee et al., J Biol Chem 282, 29777-29784 (2007); Moore et al., Proc. Natl. Acad. Sci. U.S.A 115, 10166-10171 (2018); Moore et al., Trends Neurosci. 40, 555-571 (2017); Silayeva et al., Proc. Natl. Acad. Sci. U.S.A 112, 3523-3528 (2015)). […] Compared to KCC2, effects on KCC3, KCC4, and NKCC1 were only seen at concentrations more than 35-fold that of KCC2 (≥100 μM) (FIG. 1G)."}, "[2]": {"test_system": "acute brain slices", "assay": "Acute brain slices exposed to 0-Mg"}},
  "data": [
    {"smiles": "C[C@@H]1CN(c2nc3c(c(Nc4ccc(C5CCCCC5)cc4)n2)COC3)CCO1", "note": "[Compound A, (R)—N-(4-cyclohexylphenyl)-2-(2-methylmorpholino)-5,7-dihydrofuro[3,4-d]pyrimidin-4-amine]", "values": [
      {"measurement": "EC50", "setting": "[1]", "value": "≥ 100", "unit": "µM"},
      {"measurement": "neuronal Cl− accumulation and development of late recurrent discharges (LRDs)", "setting": "[2]", "value": "reduced"}
    ]}
  ]
}
